pIC50: −log10 of the molar value.
Experiments:
[1] = tested on: HCT-116; assay: cells; conditions: Homo sapiens, HCT-116, 72 h
[2] = tested on: CCRF-CEM; assay: Cytotoxicity against human CEM cells after 72 hrs by MTT assay; type: functional, cell-based
[3] = tested on: MDA-MB-435; assay: cells; conditions: Homo sapiens, MDA-MB-435, 72 h
Description: Cytotoxicity against human MDA-MB-435 cells after 72 hrs by MTT assay

[4] = target: Tubulin (Sus scrofa, UniProt P02554+P02550); assay: Inhibition of porcine brain tubulin assembly measured every 1 min for 60 mins by turbidimetric analysis

Row | Compound | pIC50 [1] | pIC50 [3] | IC50 [4] [nM] | pIC50 [2]
1 | COc1cccc2c1CCC(=O)/C2=C/c1ccccc1Cl | 5.24 | 5.47 |  | 5.05
2 | COc1ccc2c(c1)/C(=C\c1ccc(N(C)C)cc1)C(=O)CC2 | < 5.00 | < 5.00 |  | < 5.00
3 | COc1cccc2c1CCC(=O)/C2=C/c1ccc(Cl)cc1Cl | 5.15 | 5.03 |  | < 5.00
4 | COc1cccc2c1CCC(=O)/C2=C/c1ccc(Cl)cc1 | 5.12 | 5.16 |  | 5.07
5 | COc1ccc2c(c1)CCC(=O)/C2=C/c1ccc(Cl)cc1Cl | 5.67 | 6.48 |  | 5.92
6 | COc1ccc2c(c1)CCC(=O)/C2=C/c1ccc([N+](=O)[O-])cc1 | 5.65 | 6.27 |  | 6.17
7 | COc1cccc2c1CCC(=O)/C2=C/c1ccc([N+](=O)[O-])cc1 | 5.06 | 5.11 |  | < 5.00
8 | COc1cccc2c1CCC(=O)/C2=C/c1ccc(Br)cc1 | 5.17 | 5.12 |  | < 5.00
9 | COc1ccc2c(c1)/C(=C\c1ccc(O)cc1)C(=O)CC2 | 5.49 | 6.07 |  | 5.98
10 | COc1ccc2c(c1)CCC(=O)/C2=C/c1ccc(C(F)(F)F)cc1 | 5.63 | 6.12 |  | 5.92
11 | COc1ccc(/C=C2/C(=O)CCc3c(OC)cccc32)cc1OC | 5.67 | 5.81 |  | 5.87
12 | COc1cccc2c1CCC(=O)/C2=C/c1ccc(C(F)(F)F)cc1 | 5.27 | 5.23 |  | < 5.00
13 | COc1ccc(/C=C2/C(=O)CCc3c(OC)cccc32)cc1 | 5.45 | 5.86 |  | 5.58
14 | COc1cccc2c1CCC(=O)/C2=C/c1ccc(N(C)C)cc1 | 5.01 | 5.11 |  | < 5.00
15 | COc1cccc2c1CCC(=O)/C2=C/c1ccc(O)cc1 | 5.57 | 5.81 |  | 5.36
16 | COc1cccc2c1CCC(=O)/C2=C/c1ccc(C(C)(C)C)cc1 | < 5.00 | < 5.00 |  | < 5.00
17 | COc1ccc2c(c1)/C(=C\c1ccc([N+](=O)[O-])cc1)C(=O)CC2 | 5.05 | < 5.00 |  | < 5.00
18 | COc1ccc2c(c1)/C(=C\c1ccc(Br)cc1)C(=O)CC2 | < 5.00 | < 5.00 |  | < 5.00
19 | COc1ccc2c(c1)/C(=C\c1ccc(Cl)c(Cl)c1)C(=O)CC2 | < 5.00 | < 5.00 |  | < 5.00

Row | Compound | pIC50 [1] | pIC50 [3] | IC50 [4] [nM] | pIC50 [2]
20 | COc1ccc2c(c1)CCC(=O)/C2=C/c1ccccc1Cl | 5.77 | 6.34 |  | 6.24
21 | COc1cc(/C=C2/C(=O)CCc3ccc(OC)cc32)cc(OC)c1 | 6.30 | 6.07 |  | 6.59
22 | COc1ccc2c(c1)/C(=C\c1ccc(OC)c(OC)c1OC)C(=O)CC2 | 5.57 | 5.87 |  | 5.38
23 | COc1cccc2c1CCC(=O)/C2=C/c1ccccc1 | < 5.00 | 5.20 |  | 5.06
24 | COc1ccc2c(c1)/C(=C\c1ccc(C)cc1)C(=O)CC2 | 5.43 | 5.58 |  | 5.42
25 | COc1ccc2c(c1)/C(=C\c1cc(OC)c(OC)c(OC)c1)C(=O)CC2 | 6.29 | 6.47 | 9630 | 9.00
26 | COc1cccc2c1CCC(=O)/C2=C/c1c(Cl)cccc1Cl | 5.17 | < 5.00 |  | 5.06
27 | COc1cccc2c1CCC(=O)/C2=C/c1ccc(C)cc1 | < 5.00 | < 5.00 |  | < 5.00
28 | COc1ccc2c(c1)/C(=C\c1ccc(Cl)cc1)C(=O)CC2 | 5.33 | 5.23 |  | < 5.00
29 | COc1cccc2c1CCC(=O)/C2=C/c1ccc(Cl)c(Cl)c1 | < 5.00 | < 5.00 |  | < 5.00
30 | COc1ccc2c(c1)/C(=C\c1ccc(C(C)(C)C)cc1)C(=O)CC2 | < 5.00 | < 5.00 |  | < 5.00
31 | COc1ccc2c(c1)/C(=C\c1ccccc1Cl)C(=O)CC2 | 5.63 | 5.77 |  | 5.28
32 | COc1cc(/C=C2/C(=O)CCc3c(OC)cccc32)cc(OC)c1 | 5.25 | 5.40 |  | < 5.00
33 | COc1ccc2c(c1)/C(=C\c1ccccc1)C(=O)CC2 | 5.49 | 5.84 |  | 5.82
34 | COc1ccc2c(c1)/C(=C\c1ccc(C(F)(F)F)cc1)C(=O)CC2 | 5.21 | 5.19 |  | < 5.00
35 | COc1cccc2c1CCC(=O)/C2=C/c1ccc(OC)c(OC)c1OC | < 5.00 | < 5.00 |  | < 5.00
36 | COc1ccc2c(c1)/C(=C\c1ccc(Cl)cc1Cl)C(=O)CC2 | < 5.00 | < 5.00 |  | < 5.00
37 | COc1cccc2c1CCC(=O)/C2=C/c1cc(OC)c(OC)c(OC)c1 | 5.91 | 6.21 | 18680 | 5.66

More lines, main results first:

Row | pIC50 [1] | pIC50 [3] | IC50 [4] [nM] | Compound | pIC50 [2]
38 | 6.89 | 6.70 | 6420 | COc1ccc2c(c1)CCC(=O)/C2=C/c1ccc(OC)c(OC)c1 | 7.14
39 | 5.86 | 5.98 |  | COc1ccc2c(c1)/C(=C\c1ccc(OC)c(O)c1)C(=O)CC2 | 5.85
40 | 6.07 | 6.68 | 25820 | COc1ccc(/C=C2/C(=O)CCc3cc(OC)ccc32)cc1 | 6.96
41 | 5.06 | 5.25 |  | COc1ccc2c(c1)CCC(=O)/C2=C/c1ccc(N(C)C)cc1 | 5.10
42 | 5.90 | 6.05 |  | COc1ccc2c(c1)CCC(=O)/C2=C/c1ccc(Cl)cc1 | 6.02
43 | 5.59 | 5.88 |  | COc1ccc2c(c1)CCC(=O)/C2=C/c1ccc(C)cc1 | 5.64
44 | < 5.00 | 5.06 |  | COc1cc(/C=C2/C(=O)CCc3c(OC)cccc32)ccc1O | < 5.00
45 | 6.82 | 6.41 | 6880 | COc1cc(/C=C2/C(=O)CCc3cc(OC)ccc32)cc(OC)c1 | 7.11
46 | 6.33 | 6.03 |  | COc1ccc2c(c1)CCC(=O)/C2=C/c1ccccc1 | 6.04
47 | 5.53 | 5.95 |  | COc1ccc2c(c1)CCC(=O)/C2=C/c1ccc(Br)cc1 | 5.82
48 | 5.95 | 6.35 |  | COc1ccc2c(c1)CCC(=O)/C2=C/c1ccc(O)cc1 | 6.02
49 | 5.88 | 6.05 |  | COc1ccc2c(c1)/C(=C\c1ccc(OC)c(OC)c1)C(=O)CC2 | 6.57
50 | 6.49 | 6.20 |  | COc1ccc2c(c1)CCC(=O)/C2=C/c1ccc(OC)c(O)c1 | 6.92
51 | 5.77 | 6.02 | 25780 | COc1ccc2c(c1)CCC(=O)/C2=C/c1ccc(OC)c(OC)c1OC | 6.07
52 | 5.60 | 5.91 |  | COc1ccc2c(c1)CCC(=O)/C2=C/c1ccc(Cl)c(Cl)c1 | 5.73
53 | 5.12 | 5.35 |  | COc1ccc2c(c1)CCC(=O)/C2=C/c1ccc(O)c(OC)c1 | 5.24
54 | 5.31 | 5.68 |  | COc1ccc2c(c1)/C(=C\c1cccc(O)c1)C(=O)CC2 | 5.59
55 | < 5.00 | 5.36 |  | COc1ccc2c(c1)/C(=C\c1ccc(O)c(OC)c1)C(=O)CC2 | 5.16
56 | 5.17 | 5.75 |  | COc1ccc2c(c1)CCC(=O)/C2=C/c1ccc(C(C)(C)C)cc1 | 5.51
57 | 5.75 | 6.12 |  | COc1ccc2c(c1)CCC(=O)/C2=C/c1cccc(O)c1 | 5.84
58 | < 5.00 | 5.25 |  | COc1ccc(/C=C2/C(=O)CCc3c(OC)cccc32)cc1O | 5.20
59 | 5.72 | 6.14 |  | COc1ccc(/C=C2/C(=O)CCc3ccc(OC)cc32)cc1 | 6.05

— ChEMBL document CHEMBL2150986, “Synthesis and biological evaluation of 1-benzylidene-3,4-dihydronaphthalen-2-one as a new class of microtubule-targeting agents” (J Med Chem, 2012)
